Tests used:
[1] = test system: men with BPH (average age above 60 years); assay: Testosterone/estradiol (T/E2) ratio before and after atamestane, 4 clinical studies, 7 treatment groups; format: in vivo, human
Protocol: Gradual lowering of the estrogen concentration induces a counterregulatory stimulation of androgen synthesis. To a certain extent, there is an endogenic testosterone substitution, by which the androgen/estrogen balance is again brought back to the “youthful” range. This substantiates the results of the longer-term treatment of older men (average age above 60 years) with the selective aromatase inhibitor atamestane.
(§1) In several clinical studies, atamestane was administered at varying dosages and over periods of up to 48 weeks to men in this age group to treat an existing BPH. […] Table 5 provides the testosterone/estrogen ratio before and after the administration of atamestane for patient populations from 4 studies and 7 treatment groups.
Assuming that the testosterone dominance that was reduced by 30-50% in the age group of patients over 60 years compared to the younger years (relative androgen deficiency) caused the symptoms of “male menopause,” the goal is thus to restore the original “balance of power” between androgens and estrogens by administering a preferably selective aromatase inhibitor by stimulating endogenic testosterone substitution without the necessity of supplying androgens exogenically. Based on the understanding that the ratio prevailing in age is the result of a 30-50% reduction compared to the youthful values, i.e., is always 50-70% of the previous value, the corresponding “youthful” previous value can be calculated for each individual patient. A patient with a testosterone/estradiol ratio of 230:1 must accordingly be adjusted to a new balance in the range between […] to 460:1, so that a preceding 30 or 50% reduction is compensated for.

patients with BPH [2] = assay: 48-week atamestane treatment (400 mg vs placebo), testosterone serum concentration; format: in vivo, human; details: daily dose 400 mg
From the text: (§2) Tables 3 and 4 show the results after a 48-week treatment.

patients with BPH [3] = assay: 24-week four-way study of atamestane versus placebo, testosterone serum concentration; format: in vivo, human; details: for Testosterone Serum Concentration Δ % (median ± SD): 24 weeks
patients with BPH [4] = assay: 48-week atamestane treatment (100 mg, 300 mg vs placebo), testosterone serum concentration; format: in vivo, human; details: for Testosterone Serum Concentration Δ % (X ± SD): 48 weeks
From the text: as §2

patients with BPH [5] = assay: Longer-term clinical studies with atamestane in BPH patients, hormone levels; format: in vivo, human
Protocol: as §1
The administration of atamestane consistently results in a resetting of the testosterone/estradiol balance in favor of the androgenic component. This action was detectable over the entire observation period up to a maximum of 48 weeks of treatment.

[6] = test system: patients with prostate cancer; details: pharmacological doses; cited from earlier work

In the case of CC1=CC(=O)C=C2CC[C@@H]3[C@H](CC[C@]4(C)C(=O)CC[C@@H]34)[C@@]12C [atamestane, 1-Methyl-androsta-1,4-diene-3,17-dione], the “T/E2 Ratio % Δ” value ([1]; 100 mg, 24 weeks) is reported as “+48%”, the “T/E2 Ratio % Δ” value ([1]; 100 mg, 48 weeks) is reported as “+41%” and the “T/E2 Ratio % Δ” value ([1]; 200 mg t.i.d., 8 weeks) is reported as “+46%”. The “T/E2 Ratio % Δ” value ([1]; 300 mg, 24 weeks) was “+58%”, the “T/E2 Ratio % Δ” value ([1]; 300 mg, 48 weeks) was “+46%” and the “T/E2 Ratio % Δ” value ([1]; 400 mg, 48 weeks) was “+54%”. The “T/E2 Ratio % Δ” value ([1]; 600 mg, 24 weeks) was “+61%”, the “achieved T/E2 versus calculated "youthful" target range” value ([1]; daily dose of 100 mg) was “target range is generally readily met” and the “achieved T/E2 versus calculated "youthful" target range” value ([1]; higher dosages (above 100 mg daily)) was “somewhat above the target range”. For the same compound, the “alteration of the testosterone/estradiol ratio” value ([1]; varying dosages, periods of up to 48 weeks) was “significant alteration of the testosterone/estradiol ratio in favor of testosterone”, the “Testosterone Serum Concentration Δ % (X ± SD)” value (patients with BPH [2]; 48 weeks) was 42.9 ± 53.5% and the “Testosterone Serum Concentration After 48 Weeks” value (patients with BPH [2]; previous value 4.2) was 5.4 ng/mL. The “Testosterone Serum Concentration Δ % (median ± SD)” value (patients with BPH [3]; daily dose 100 mg) was 29.57 ± 34.70%, the “Testosterone Serum Concentration After 24 Weeks” value (patients with BPH [3]; daily dose 100 mg, previous value 4.41) was 5.57 ng/mL and the “Testosterone Serum Concentration Δ % (median ± SD)” value (patients with BPH [3]; daily dose 300 mg) was 40.88 ± 156.12%. The “Testosterone Serum Concentration After 24 Weeks” value (patients with BPH [3]; daily dose 300 mg, previous value 4.50) was 6.15 ng/mL, the “Testosterone Serum Concentration Δ % (median ± SD)” value (patients with BPH [3]; daily dose 600 mg) was 41.19 ± 37.62% and the “Testosterone Serum Concentration After 24 Weeks” value (patients with BPH [3]; daily dose 600 mg, previous value 3.78) was 5.40 ng/mL. For the same compound, the “Testosterone Serum Concentration Δ % (X ± SD)” value (patients with BPH [4]; daily dose 100 mg) was 19.0 ± 36.8%, the “Testosterone Serum Concentration After 48 Weeks” value (patients with BPH [4]; daily dose 100 mg, previous value 5.1) was 5.9 ng/mL and the “Testosterone Serum Concentration Δ % (X ± SD)” value (patients with BPH [4]; daily dose 300 mg) was 41.7 ± 46.4%. For the same compound, the “Testosterone Serum Concentration After 48 Weeks” value (patients with BPH [4]; daily dose 300 mg, previous value 4.7) was 6.6 ng/mL, the peripheral estrogen reduction (patients with BPH [5]; daily doses of 100 mg-600 mg) was “equally intense” and the “testosterone concentration after longer-term treatment” value (patients with BPH [5]; treatment lasting 24 to 48 weeks, patients with BPH) was “significant increase”.
For CC/C(=C(/CC)c1ccc(O)cc1)c1ccc(O)cc1 [diethylstilbestrol], the “testosterone level in the serum” value [6] is listed as “castration level”.
